# Results: patent publication US10577362B2, “Substituted 2, 4-diamino-quinoline derivatives for use in the treatment of proliferative diseases” (GENOSCIENCE PHARMA, priority 2016, dated 2020)
# pEC50: −log10 of the molar value.
# Key:
# [1] = system: HepG2 (hepatocellular carcinoma) cell line; assay: CellTiter-Glo luminescent cell viability assay, HepG2; assay type: cell-based, human; conditions: Homo sapiens; for viability at 4 µM / viability at 10 µM: HepG2, HepG, 72 h; for viability at 4 µM: compound at 4 μM; for viability at 10 µM: compound at 10 μM; for pEC50: HepG2 cell line, 72 h incubation, CellTiter-Glo, read-out: EC50, growth inhibition of HepG2
# Method in brief: (§1)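 EC50 is the concentration cutting CellTiter-Glo luminescence to half that of H2O- or DMSO-treated controls after 72 h compound exposure, with each point in at least duplicate. HepG2, Huh7 and PANC-1 were seeded the night before; MOLM-14 1 h prior; all cultured with 10% FBS, 37 °C, 5% CO2.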
# [2] = system: 786-O (renal adenocarcinoma) cell line; assay: CellTiter-Glo luminescent cell viability assay, 786-O; assay type: cell-based, human; conditions: Homo sapiens, 786-0; for pEC50: 786-O cell line, 72 h incubation, CellTiter-Glo, read-out: EC50, growth inhibition of 786-O; for viability at 4 µM / viability at 10 µM: 786-O, 72 h; for viability at 4 µM: compound at 4 μM; for viability at 10 µM: compound at 10 μM
# Method in brief: (§2)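 In a 72 h viability assay, compound-treated cells were compared against matched H2O or DMSO diluent controls by luminescence, points in at least duplicate.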
# [3] = system: Huh7 (hepatocellular carcinoma) cell line; assay: CellTiter-Glo luminescent cell viability assay, Huh7; assay type: cell-based, human; conditions: Homo sapiens, Huh-7; for viability at 4 µM: Huh7, compound at 4 μM; for viability at 4 µM / viability at 10 µM: 72 h; for viability at 10 µM: Huh7, compound at 10 μM; for pEC50: Huh7 cell line, 72 h incubation, CellTiter-Glo, read-out: EC50, growth inhibition of Huh7
# Method in brief: as §1
# [4] = system: HCT-116 (colorectal carcinoma) cell line; assay: CellTiter-Glo luminescent cell viability assay, HCT-116; assay type: cell-based, human; conditions: Homo sapiens; for viability at 4 µM: HCT-116, compound at 4 μM; for viability at 4 µM / viability at 10 µM: 72 h; for viability at 10 µM: HCT-116, compound at 10 μM; for pEC50: HCT-116 cell line, 72 h incubation, CellTiter-Glo, read-out: EC50, growth inhibition of HCT-116
# Method in brief: as §2
# [5] = system: MOLM-14 (acute myeloid leukemia) cell line; assay: CellTiter-Glo luminescent cell viability assay, MOLM-14; assay type: cell-based, human; conditions: Homo sapiens; for viability at 4 µM: MOLM-14, compound at 4 μM; for viability at 4 µM / viability at 10 µM: 72 h; for viability at 10 µM: MOLM-14, compound at 10 μM; for pEC50: MOLM-14 cell line, 72 h incubation, CellTiter-Glo, read-out: EC50, growth inhibition of MOLM-14
# Method in brief: as §1
# [6] = system: PANC-1 (prancreatic carcinoma) cell line; assay: CellTiter-Glo luminescent cell viability assay, PANC-1; assay type: cell-based; conditions: Homo sapiens; for viability at 4 µM: PANC-1, 4 μM; for viability at 4 µM / viability at 10 µM: 72 h, % of signal of diluent-treated cultures; for viability at 10 µM: PANC-1, 10 μM; for pEC50: PANC-1 cell line, 72 h incubation, CellTiter-Glo, read-out: EC50 (growth inhibition assay of PANC-1 cell line)
# Method in brief: as §1
# [7] = system: A375 (malignant melanoma) cell line; assay: CellTiter-Glo luminescent cell viability assay, A375; assay type: cell-based, human; conditions: Homo sapiens, A-375; for viability at 4 µM: A375, compound at 4 μM; for viability at 4 µM / viability at 10 µM: 72 h; for viability at 10 µM: A375, compound at 10 μM; for pEC50: A375 cell line, 72 h incubation, CellTiter-Glo, read-out: EC50, growth inhibition of A375
# Method in brief: as §2
Structure (SMILES),viability at 4 µM [1] [%],viability at 10 µM [1] [%],pEC50 [1],pEC50 [2],viability at 4 µM [2] [%],viability at 10 µM [2] [%],viability at 4 µM [3] [%],viability at 10 µM [3] [%],pEC50 [3],viability at 4 µM [4] [%],viability at 10 µM [4] [%],pEC50 [4],viability at 4 µM [5] [%],viability at 10 µM [5] [%],pEC50 [5],viability at 4 µM [6] [%],viability at 10 µM [6] [%],viability at 4 µM [7] [%],viability at 10 µM [7] [%],pEC50 [7],other results
"CNC1CCN(c2c(C#N)c(NCc3ccc(Cl)cc3)nc3ccccc23)C1 (centres unmarked) [Compound 3192CN, 2-(4-chloro-benzylamino)-3-cyano-4-[3-(methylamino)pyrrolidin-1-y]quinoline]",59.5,0.4,5.30 to 6.30,5.30 to 6.30,0.4,0.2,78,0.4,5.30 to 6.30,57.3,0.2,5.30 to 6.30,0.6,0.3,5.00 to 5.30,77.1,1.5,104,0.4,5.30 to 6.30,pEC50 [6]: 5.00 to 5.30
"CN1CCN(C2CCN(c3c(C#N)c(NCc4ccc(Cl)cc4)nc4ccccc34)C2)CC1 (centres unmarked) [Compound 3200CN, 2-(4-chloro-benzylamino)-3-cyano-4-[3-(4-methylpiper-azin-1-yl)pyrro-lidin-1-yl] quinoline]",71.8,0.3,5.00 to 5.30,5.00 to 5.30,41.7,0.4,80.6,0.4,5.00 to 5.30,35.1,0.4,5.00 to 5.30,97.1,0.4,5.00 to 5.30,90.2,38.4,47.3,0.3,5.00 to 5.30,
"CN(C)C1CCN(c2c(C#N)c(NCc3ccc(Cl)cc3)nc3ccccc23)C1 (centres unmarked) [Compound 3202CN, 2-(4-chloro-benzylamino)-3-cyano-4-[3-(dimethylamino)pyrrolidin-1-yl]quinoline]",104,81,,,92.9,74.7,91.1,61.5,,93.7,62.4,,98.7,82.6,,96.1,81.5,84.5,70.5,,
"CC(C)(C)NC1CCN(c2c(C#N)c(Nc3ccccc3)nc3ccccc23)CC1 [Compound 3246CN, 2-(phenylamino)-3-cyano-4-[4-(tert-butylamino)piperidin-1-yl]quinoline]",53.2,0.2,5.30 to 6.30,5.00 to 5.30,59,0.2,67.7,0.6,5.30 to 6.30,3,0.1,5.30 to 6.30,91.9,3.1,5.00 to 5.30,88.2,38.8,66.2,0.2,5.30 to 6.30,pEC50 [6]: 5.00 to 5.30
"Cc1cc(Nc2nc3ccccc3c(N3CCC(NC(C)(C)C)CC3)c2C#N)ccc1F [Compound 3250CN, 2-(3-methyl-4-fluorophenylamino)-3-cyano-4-[4-(tert-butylamino)piperidin-1-yl]quinoline]",71,0.5,5.30 to 6.30,5.30 to 6.30,30.3,0.4,67,0.5,5.00 to 5.30,0.2,0.1,5.30 to 6.30,87.5,0.6,5.00 to 5.30,94.7,13.1,0.7,0.3,5.30 to 6.30,pEC50 [6]: 5.00 to 5.30
"COc1ccc(Nc2nc3ccccc3c(N3CCC(NC(C)(C)C)CC3)c2C#N)cc1 [Compound 3252CN, 2-(4-methoxyphenylamino)-3-cyano-4-[4-(tert-butylamino)piperidin-1-yl]quinoline]",68.4,0.3,5.00 to 5.30,5.30 to 6.30,74.2,0.3,80.6,2.9,5.00 to 5.30,2.5,0.2,5.30 to 6.30,80.2,0.7,5.00 to 5.30,94.7,47.9,20,0.2,5.30 to 6.30,pEC50 [6]: 5.00 to 5.30
"CC(C)(C)NC1CCN(c2c(C#N)c(Nc3ccccc3C(F)(F)F)nc3ccccc23)CC1 [Compound 3254CN, 2-(2-trifluoromethylphenylamino)-3-cyano-4-[4-(tert-butylamino)piperidin-1-yl]quinoline]",6.9,0.2,5.30 to 6.30,5.30 to 6.30,6.3,0.3,34.2,0.3,5.30 to 6.30,0.3,0.2,5.30 to 6.30,81.4,0.3,5.00 to 5.30,78.4,3,0.4,0.2,5.30 to 6.30,pEC50 [6]: 5.00 to 5.30
"CC(C)(C)NC1CCN(c2c(C#N)c(Nc3cccc(C(F)(F)F)c3)nc3ccccc23)CC1 [Compound 3256CN, 2-(3-trifluoromethylphenylamino)-3-cyano-4-[4-(tert-butylamino)piperidin-1-yl]quinoline]",82.9,56.6,,,61.8,13.7,78.3,29.3,,3.6,0.2,,91.1,85.6,,104,81.8,55.2,2.4,,
"CC(C)(C)NC1CCN(c2c(C#N)c(Nc3ccc(F)cc3)nc3ccccc23)CC1 [Compound 3260CN, 2-(4-fluorophenylamino)-3-cyano-4-[4-(tert-butylamino)piperidin-1-yl]quinoline]",49.1,0.4,5.30 to 6.30,5.30 to 6.30,17.5,0.3,50.7,0.7,5.00 to 5.30,1.2,0.3,5.30 to 6.30,86.7,0.9,5.00 to 5.30,84.1,39.1,2.2,0.4,5.30 to 6.30,pEC50 [6]: 5.00 to 5.30
"CC(C)(C)NC1CCN(c2c(C#N)c(Nc3cccc(F)c3)nc3ccccc23)CC1 [Compound 3262CN, 2-(3-fluorophenylamino)-3-cyano-4-[4-(tert-butylamino)piperidin-1-yl]quinoline]",70.8,0.6,5.00 to 5.30,5.30 to 6.30,42.6,0.7,67.9,0.7,5.00 to 5.30,2.6,0.5,5.30 to 6.30,98.7,0.6,5.00 to 5.30,101,48,74.9,0.6,5.00 to 5.30,
